In general, IC50 refers to the concentration needed to halve the response being measured. In general, Papp refers to a coefficient for how fast a substance crosses the barrier.

The subject of one data set is HCT116 cells. The data set is described as follows: inhibition of cell proliferation of HCT116 cells (14C-thymidine incorporation). Type of data set: cell-based. To be noted: Homo sapiens, HCT-116, HCT116, 96 hours. The method, then: The antiproliferative activity of the products of the examples of Table 1 was determined by measuring the inhibition of cell proliferation of HCT116 cells. The cells are inoculated in a cell culture medium at a concentration of 10 000 cells per well, in 0.17 mL of medium, and 20 μL of test product, at various concentrations, and 10 μL of thymidine [methyl-14C] (100 μCi/ml—specific activity 47.90 mCi/mmol; NEN Technologies reference NEC568 batch 3550-001) are added, and the cells are then incubated at 37° C. and 5% CO2.
Medium used for the HCT116 cell culturing: DMEM medium 2 mM L-glutamine, 200 IU/ml penicillin, 200 μg/mL streptomycin and 10% (V/V) foetal calf serum (Life Technologies).
After 96 hours, the incorporation of ^14C-thymidine is counted in a 1450 Microbeta Wallac Trilux liquid scintillation counter. The results R are expressed in cpm (counts per minute) and converted to a percentage of growth inhibition GI % by first subtracting the average number of cpm for the wells without B cells and then dividing the number of cpm for the wells of the untreated cells C comprising 20 μL of product dilution medium containing 1% ethanol. (GI %=(R−B)×100/C %).
The IC50 values are calculated by means of equation 205 of the XLFit software (IDBS company, UK) via non-linear regression analysis using the Marquardt algorithm (Donald W. Marquardt, J. Soc. Industry. Appl., vol. 11, No. 2, June, 1963).
In general terms: Incorporation of labelled thymidine or its analogues reports DNA synthesis.

Data set [1] in a line: Caco2-TC7 permeability (Papp single point). Type of data set: in vitro ADME. To be noted: human, Caco-2. For orientation: Passage across Caco-2 layers is used to estimate intestinal permeability.
A short description of data set [2]: total metabolic stability (% metabolization). Type of data set: in vitro ADME. As to conditions: in mice. An excerpt:
This compound has better total metabolic stability (11% metabolization in mice) than the product of Example 20 (99%) described in patent application WO 2006/056 696.

In the data set on HCT116 cells, `CO[C@@H](C(=O)N[C@H]1C[S@@+]([O-])c2ccccc2N(Cc2cc(F)cc(F)c2)C1=O)[C@H](O)[C@@H](O)[C@H](O)/C=C/C(C)(C)C` [Example 1] came in with an IC50 of 9 nM.
The same measure, in the same setting: as for `CO[C@@H](C(=O)N[C@H]1CSc2ccccc2N(C)C1=O)[C@H](O)[C@@H](O)[C@H](O)/C=C/C1CCCC1` [Example 9, (2R,3R,4S,5R,6E)-7-cyclopentyl-3,4,5-trihydroxy-2-methoxy-N-[(3R)-5-methyl-4-oxo-2,3,4,5-tetrahydro-1,5-benzothiazepin-3-yl]hept-6-enamide], the figure is 7 nM.
`CO[C@@H](C(=O)N[C@H]1CSc2c(Cl)cc(C(F)(F)F)cc2NC1=O)[C@H](O)[C@@H](O)[C@H](O)/C=C/C(C)(C)C` [Example 5, N-((3R)-9-chloro-4-oxo-7-trifluoromethyl-2,3,4,5-tetrahydro-1,5-benzothiazepin-3-yl)-(6E)-(2R,3R,4S,5R)-3,4,5-trihydroxy-2-methoxy-8,8-dimethylnon-6-enamide] returned a Papp in data set [1] of 2.3 ×10⁻⁶ cm/s. Further, the “total metabolic stability, % metabolization” value in data set [2] worked out at 11%. The IC50 with HCT116 cells is 14 nM.
`CO[C@@H](C(=O)N[C@H]1CSc2ccccc2N(C)C1=O)[C@H](O)[C@@H](O)[C@H](O)/C=C/C(C)(C)C` [Example 4, N-[(3R)-5-methyl-4-oxo-2,3,4,5-tetrahydro-1,5-benzothiazepin-3-yl]-(6E)-(2R,3R,4S,5R)-3,4,5-trihydroxy-2-methoxy-8,8-dimethylnon-6-enamide] yielded an IC50 in the data set on HCT116 cells of 19 nM.
`CO[C@@H](C(=O)N[C@H]1CSc2ccccc2N(Cc2ccccc2)C1=O)[C@H](O)[C@@H](O)[C@H](O)/C=C/C(C)(C)C` [Example 3, N-[(3R)-5-benzyl-4-oxo-2,3,4,5-tetrahydro-1,5-benzothiazepin-3-yl]-(6E)-(2R,3R,4S,5R)-3,4,5-trihydroxy-2-methoxy-8,8-dimethyl non-6-enamide] had an IC50 with HCT116 cells of 10 nM. This IC50 lies about 1.9-fold lower than the previous one.
Still for that read-out and setting: with `CO[C@@H](C(=O)N[C@H]1C[S@+]([O-])c2ccccc2N(Cc2cc(F)cc(F)c2)C1=O)[C@H](O)[C@@H](O)[C@H](O)/C=C/C(C)(C)C` [Example 2] the figure was 20 nM.

The values are drawn from US7960373B2, “2-alkoxy-3,4,5-trihydroxyalkylamide-benzothiazepines preparation thereof, compositions containing them and use thereof” (Sanofi-Aventis, priority 2006, dated 2011).
